From publication PMC5325331, “A steroid like phytochemical Antcin M is an anti-aging reagent that eliminates hyperglycemia-accelerated premature senescence in dermal fibroblasts by direct activation of Nrf2 and SIRT-1” (Oncotarget, 2016)
Read-outs that look alike come from different tables or passages of the source.

How the values were obtained:
HNDFs [1] = test: Cytotoxicity of antcins against HNDFs (MTT assay); type: cell-based, human; conditions: for IC50: MTT assay, read-out: IC50 (50% inhibitory concentration) against HNDFs; for cytotoxicity to HNDFs up to the high treatment concentration: up to 20 μM, 72 h, MTT
Procedure: Figure 2 Effects of antcins on HG-induced senescence in HNDFs A. Type of antcins subjected to screen for potential anti-aging agents for skin aging. Names and chemical structures of the antcins are shown in the left and centrer column, respectively. The cytotoxic effects of antcins against HNDFs. Briefly, HNDFs were incubated with increasing concentrations (1, 5, 10 and 20 μM) of antcins including antcin A, antcin B, antcin C, antcin H, anticn K and antcin M for 72 h and the cell viability was determined by MTT assay. The 50% inhibitory concentrations (IC50) of each compound against HNDFs are shown in right column. B. Cells were incubated with antcin A (10 μM), antcin H (10 μM) and antcin M (10 μM) in the presence of HG (30 mM) for 72 h. Cellular senescence was determined by SA-β-gal activity. […] C. HNDFs were incubated with antcin A (10 μM), antcin H (10 μM) and antcin M (10 μM) in the presence of HG (30 mM) for 72 h. Senescence-associated marker proteins such as p16^INK4A, p21^CIP1 and SMP30 were determined by western blot analysis. D. To determine the effect of antcins on cell proliferation efficacy, HNDFs 5 × 10^4 cells/well in 6-well plates were incubated with antcins in the presence of HG (30 mM) for 72 h. Number of viable cells were quantified by the tryphan blue exclusion method. Results are expressed as mean ± S.E.M of three indipendent expriments. Statistical significance was et at ^ФP < 0.05 compared to NG vs HG and *P < 0.05 compared to HG vs. samples.
(§1) Human normal dermal fibroblasts (HNDFs, CCD966SK) and human umbilical vein endothelial cells (HUVECs) were obtained from the Bioresource Collection and Research Center (BCRC), Hsinchu, Taiwan. HNDFs were grown in MEM containing 10% FBS, 2 mM L-glutamine, 100 U/mL penicillin and streptomycin at 37°C in a fully humidified atmosphere of 5% CO2. Likewise, HUVECs were grown in M-199 medium supplemented with ECGS, heparin, 10% FBS and 100 U/mL penicillin and streptomycin at 37°C in a fully humidified atmosphere of 5% CO2. High-glucose treatment was performed by treating cells with 15 or 30 mM D-glucose (HG) for 24-72 h.
Cell viability was assessed by MTT colorimetric assay. Briefly, HNDFs (2 × 10^4 cells/well) or HUVECs (5 × 10^4 cells/well) were seeded in a 24-well culture plate. After treatment with HG (15 and 30 mM) in the presence or absence of samples for 24-72 h, culture media was withdrawn and incubated with MTT (1 mg/mL) in fresh medium for 2 h. The MTT formazan crystals were dissolved in 400 μL of DMSO and the samples were measured at 570 nm […] using an ELISA microplate reader (Bio-Tek Instruments, Winooski, VT). The percentage of cell viability (%) was calculated as (A570 of treated cells/A570 of untreated cells) × 100.

HNDFs [2] = test: SA-β-gal senescence assay in HG-induced HNDFs; type: cell-based, human; conditions: for SA-β-gal positive cells: 10 μM with HG (30 mM) for 72 h, HG alone 9.59-fold (Figure 2B); for HG-induced SA-β-gal activity in kinase inhibitor-treated cells: inhibitor 30 μM with HG (30 mM) for 72 h (Figure 4H)
Procedure: as §1
Senescence-associated β-galactosidase (SA-β-gal) activity was determined in formaldehyde-fixed histochemical staining kit according to the manufacturer's instructions (Cell Signaling Technology, Danvers, […]). Briefly, cells were grown in 6-well plates at a density of 5 × 10^4 cells/well, and incubated with HG or test samples for 48 h (HUVECs) or 72 h (HNDFs). After incubation, cells were stained with SA-β-gal staining solution at pH 6.0 overnight and then the development of blue staining was observed and photographed under a bright-field microscope (Motic Electric Group, Xiamen, P.R. China).

HNDFs [3] = test: Cell proliferation, trypan blue exclusion assay in HG-induced HNDFs; type: cell-based, human; conditions: with HG (30 mM) for 72 h (Figure 2D)
Procedure: Cell proliferation was evaluated using trypan blue exclusion assay as described previously with minor modification. Cells were plated into 6-well plates at a density of 5 × 10^4 cells/well. After incubation overnight, cells were treated with test samples in the presence or absence of HG for 24-72 h. Cells exposed to 0.2% Trypan blue were then counted in a hemocytometer, and cells stained with Trypan blue were excluded. Percentage of viable cells was calculated based on the ratio of viable cells to total cell population in each well. The proliferation rate was calculated based on the number of viable cells in HG or sample-treated groups versus the NG-treated group.

[4] = tested on: p16INK4A, p21CIP1 and SMP30; test: Western blot of senescence-associated marker proteins in HG-induced HNDFs; type: cell-based, human; conditions: 10 μM with HG (30 mM) for 72 h, immunoblotting
Procedure: Cells were lysed by either RIPA lysis buffer or nuclear and cytoplasmic extraction reagents (Thermo Fisher Scientific). Protein concentrations were determined by Bio-Rad protein assay reagent (Bio-Rad Laboratories, Hercules, CA). Equal amounts of protein samples (60 μg) were separated by 7-12% SDS-PAGE and the separated proteins were transferred onto polyvinylidene […] (PVDC) membrane overnight. The transferred protein membranes were blocked with 5% non-fat dried milk for 30 min, followed by incubation with specific primary antibodies overnight, and either horseradish peroxidase-conjugated goat anti-rabbit or anti-mouse antibodies for 2 h. The blots were detected using VL Chemi-Smart 3000 (Viogene Biotek, Sunnyvale, CA) with the enhanced chemiluminescence (ECL) western blotting reagent (Millipore, Billerica, MA).

[5] = tested on: Nrf2 transcriptional activity (ARE promoter); test: ARE luciferase reporter assay in HNDFs; type: cell-based, human; conditions: for ANM-induced ARE luciferase activity after inhibitor pretreatment: inhibitor pre-incubation 2 h, then ANM 6 h in the presence of HG; for ARE luciferase activity: 6 h
Procedure: ARE promoter activity was measured using a dual-luciferase reporter assay system (Promega, Madison, WI). […] Cells were then transfected with ARE plasmid (Qiagen, Hilden, Germany) using Lipofectamine 2000 (Invitrogen) and incubated for 36 h. […] The cell lysate was prepared and incubated with luciferase agents and the relative luminescence intensity was quantified using a spectrophotometer (Hidex Oy, Turku, Finland).

HNDFs [6] = test: Cell-cycle analysis by flow cytometry (PI) in HG-induced HNDFs; type: cell-based, human; conditions: NAC 100 μM with HG (30 mM) for 72 h
Procedure: HNDFs at a density of 5 × 10^5 cells in 10 cm dishes were treated with ANM or NAC in the presence or absence of HG for 72 h. Cells were collected, washed with PBS and fixed in 95% cold-ethanol, and kept at −20°C overnight. The cell pellet was then washed again with PBS and centrifuged at 1500 × g for 5 min. The pellet was re-suspended in 1 mL PI/Triton X-100 (20 μg/mL PI, 0.1% Triton X-100 and 0.2 mg/mL RNAse) and incubated on ice for 30 min. The total cellular DNA content was analyzed with a flow cytometer (Beckman Coulter FC500). Data were acquired and analyzed using CXP software (Beckman Coulter).

HNDFs [7] = test: Flow cytometric detection of intracellular ROS (DCFH2-DA) in HNDFs; type: cell-based, human
Procedure: Intracellular ROS accumulation was determined using the dye DCFH2-DA following a procedure described earlier. Briefly, HNDFs (1 × 10^5 cells/well) were seeded in 6-well plates and incubated with HG in the presence or absence of test samples for 24 h. At the end of the incubation, the culture supernatant was removed and cells were washed twice with PBS. DCFH2-DA (10 μM) was mixed with 500 μL MEM and added to the culture plate. After incubation for 30 minutes, cells were collected by trypsin and the fluorescence shift was quantified using a flow cytometer (Beckman Coulter). Data were acquired and analyzed using CXP software (Beckman Coulter).

[8] = Cell-free DPPH free-radical scavenging assay
Procedure: Therefore, next to determine whether ANM acts directly as a free-radical scavenger, we performed a cell-free DPPH free-radical scavenging assay.
Figure 5 Antcin M activates Nrf2-dependent anti-oxidant defense in HNDFs A. To determine the free-radical scavenging effect of ANM, cell-free DPPH assay was performed. […] Results expressed as mean ± S.E.M of three indipendent expriments.

[9] = tested on: C. elegans wild type Bristol N2; test: Life span assay in C. elegans; type: in vivo, Caenorhabditis elegans; conditions: ANM 10 μM or RES 438 μM alone, compared to the control
Procedure: The wild type Bristol N2 strain was used in this study. C. elegans and Escherichia coli OP50 strain were obtained from the Caenorhabditis Genetic Center, University of Minnesota (Minneapolis-St. Paul, MN). Worms were maintained at 20°C on nematode growth medium (NGM). Hatched worms (L1-stage larvae) were transferred to fresh agar plates and cultured with E. coli OP50 as a food source until they reached the L4 larvae stage. Synchronization of worm cultures was achieved by hypochlorite treatment of gravid hermaphrodites. […] Control worms were treated with 0.1% DMSO. All worms were kept 20°C to develop adulthood. Surviving and dead animals were counted daily (starting from the first day of adulthood) until all worms had died. […] Worms suffering from internal hatch (a defect in egg-laying) and those that crawled off the NGM plate were not included in the life-span assay. During the reproductive period, adult worms were transferred to fresh NGM plates every and then every other day thereafter. Life span assay result was obtained from three independent assays.

HUVECs = test: Cell viability of HUVECs (MTT assay); type: cell-based, human; conditions: ANM 10 μM or RES 5 μM for 48 h
Procedure: Human normal dermal fibroblasts ([…]) and human umbilical vein endothelial cells (HUVECs) were obtained from the Bioresource Collection and Research Center (BCRC), Hsinchu, Taiwan. […] Likewise, HUVECs were grown in M-199 medium supplemented with ECGS, heparin, 10% FBS and 100 U/mL penicillin and streptomycin at 37°C in a fully humidified atmosphere of 5% CO2. High-glucose treatment was performed by treating cells with 15 or 30 mM D-glucose (HG) for 24-72 h. […] Cell viability was assessed by MTT colorimetric assay. […] After treatment with HG (15 and 30 mM) in the presence or absence of samples for 24-72 h, culture media was withdrawn and incubated with MTT (1 mg/mL) in fresh medium for 2 h. The MTT formazan crystals were dissolved in 400 μL of DMSO and the samples were measured at 570 nm […] using an ELISA microplate reader (Bio-Tek Instruments, Winooski, VT). The percentage of cell viability (%) was calculated as (A570 of treated cells/A570 of untreated cells) × 100.

[10] = Homo sapiens, 72 h, 1, 5, 10 and 20 μM for 72 h

Structure (SMILES): C=C(CC[C@@H](C)[C@H]1CC[C@H]2C3=C(C(=O)C[C@]12C)[C@@]1(C)CCC(=O)[C@@H](C)[C@@H]1CC3)C(C)C(=O)O (some centres unmarked) [ANA, antcin A]
- IC50 (HNDFs [1]; [10]): > 50 µM
- SA-β-gal positive cells (HNDFs [2]): 7.46 fold
- cell proliferation compared to the HG treatment group (HNDFs [3]): partially increased cell proliferation
- HG-induced upregulation of p16INK4A and p21CIP1 proteins [4]: moderate inhibition

Structure (SMILES): C=C(CC[C@@H](C)[C@H]1CC[C@H]2C3=C(C(=O)C[C@]12C)[C@@]1(C)CCC(=O)[C@@H](C)[C@@H]1CC3=O)[C@H](C)C(=O)O [ANB, antcin B]
- IC50 (HNDFs [1]; [10]): 7.11 µM

Structure (SMILES): C=C(CCC(C)C1CCC2C3=C(C(=O)CC21C)C1(C)CCC(=O)C(C)C1CC3O)C(C)C(=O)O (centres unmarked) [ANC, antcin C]
- IC50 (HNDFs [1]; [10]): > 50 µM
- cytotoxicity to HNDFs up to the high treatment concentration (HNDFs [1]): did not show significant cytotoxicity

Structure (SMILES): C=C(CCC(C)C1CCC2C3=C(C(=O)C(O)C21C)C1(C)CCC(O)C(C)C1CC3=O)C(C)C(=O)O (centres unmarked) [ANH, antcin H]
- IC50 (HNDFs [1]; 1, 5, 10 and 20 μM for 72 h): > 50 µM
- cytotoxicity to HNDFs up to the high treatment concentration (HNDFs [1]): did not show significant cytotoxicity
- SA-β-gal positive cells (HNDFs [2]): 8.13 fold
- cell proliferation compared to the HG treatment group (HNDFs [3]): partially increased cell proliferation
- HG-induced upregulation of p16INK4A and p21CIP1 proteins [4]: moderate inhibition

Structure (SMILES): C=C(CC[C@@H](C)[C@H]1CC[C@H]2C3=C(C(=O)C[C@]12C)[C@@]1(C)CC[C@@H](O)[C@](C)(O)[C@@H]1C[C@@H]3O)C(C)C(=O)O (some centres unmarked) [ANK, antcin K]
- IC50 (HNDFs [1]; [10]): 2.89 µM

Structure (SMILES): O=c1cc(N2CCOCC2)oc2c(-c3ccccc3)cccc12 [LY294002, reference compound]
- HG-induced SA-β-gal activity in kinase inhibitor-treated cells (HNDFs [2]): reduced
- ANM-induced ARE luciferase activity after inhibitor pretreatment [5]: effectively suppressed

Structure (SMILES): CC(=O)N[C@@H](CS)C(=O)O [NAC, N-acetylcysteine, reference compound]
- HG-induced cell-cycle arrest (HNDFs [6]): partially blocked
- HG-induced ROS generation (HNDFs [7]; ANM 10 μM or NAC 100 μM with HG (30 mM) for 24 h, HG alone 426.2%): 176.58%
- ROS generation, treatment alone (HNDFs [7]; ANM 10 μM or NAC 100 μM without HG, 24 h): did not significantly increase ROS generation
- free-radical scavenging in the cell-free system [8]: potent free-radical scavenging effect
- ARE luciferase activity ([5]; ANM 10 μM or NAC 100 μM alone, control 1-fold): 6.3 fold
- ARE luciferase activity ([5]; co-treated with HG (30 mM), ANM 10 μM or NAC 100 μM, HG alone 2.5-fold): 8.2 fold

Structure (SMILES): COc1cccc(-c2cc(=O)c3ccccc3o2)c1N [PD98059, reference compound]
- HG-induced SA-β-gal activity in kinase inhibitor-treated cells (HNDFs [2]): did not affect
- ANM-induced ARE luciferase activity after inhibitor pretreatment [5]: effectively suppressed

Structure (SMILES): Oc1ccc(/C=C/c2cc(O)cc(O)c2)cc1 [RES, resveratrol, reference compound]
- life span of C. elegans under normal condition [9]: highly comparable
- cell viability of HUVECs, treatment alone (HUVECs): did not affect cell viability

Structure (SMILES): C[S+]([O-])c1ccc(-c2nc(-c3ccncc3)c(-c3ccc(F)cc3)[nH]2)cc1 (centres unmarked) [SB203580, reference compound]
- HG-induced SA-β-gal activity in kinase inhibitor-treated cells (HNDFs [2]): barely observed
- ANM-induced ARE luciferase activity after inhibitor pretreatment [5]: partially or barely inhibited

Structure (SMILES): Oc1c2ccccc2c2c3c(cccc13)N=N2 [SP600125, reference compound]
- HG-induced SA-β-gal activity in kinase inhibitor-treated cells (HNDFs [2]): barely observed
- ANM-induced ARE luciferase activity after inhibitor pretreatment [5]: partially or barely inhibited
